Reference: patent US7420029B2, “Tissue-specific transporter inhibitor” (Japan Science and Technology Agency, priority 2001, dated 2008)

Columns and labels:
hPEPT 1 [1] = target: T1, hPEPT 1 (Homo sapiens, UniProt P46059); assay: Inhibitory effect on [^3H] Gly-Sar uptake by HeLa-hPEPT 1 cells; format: cell-based; conditions: for [^3H] Gly-Sar uptake % of control: HeLa-hPEPT 1, pH 6.0, 2 min
T1 construct: expressed in transfected cells; mock = HeLa-pcDNA 3
T1 sequence (P46059 1-708): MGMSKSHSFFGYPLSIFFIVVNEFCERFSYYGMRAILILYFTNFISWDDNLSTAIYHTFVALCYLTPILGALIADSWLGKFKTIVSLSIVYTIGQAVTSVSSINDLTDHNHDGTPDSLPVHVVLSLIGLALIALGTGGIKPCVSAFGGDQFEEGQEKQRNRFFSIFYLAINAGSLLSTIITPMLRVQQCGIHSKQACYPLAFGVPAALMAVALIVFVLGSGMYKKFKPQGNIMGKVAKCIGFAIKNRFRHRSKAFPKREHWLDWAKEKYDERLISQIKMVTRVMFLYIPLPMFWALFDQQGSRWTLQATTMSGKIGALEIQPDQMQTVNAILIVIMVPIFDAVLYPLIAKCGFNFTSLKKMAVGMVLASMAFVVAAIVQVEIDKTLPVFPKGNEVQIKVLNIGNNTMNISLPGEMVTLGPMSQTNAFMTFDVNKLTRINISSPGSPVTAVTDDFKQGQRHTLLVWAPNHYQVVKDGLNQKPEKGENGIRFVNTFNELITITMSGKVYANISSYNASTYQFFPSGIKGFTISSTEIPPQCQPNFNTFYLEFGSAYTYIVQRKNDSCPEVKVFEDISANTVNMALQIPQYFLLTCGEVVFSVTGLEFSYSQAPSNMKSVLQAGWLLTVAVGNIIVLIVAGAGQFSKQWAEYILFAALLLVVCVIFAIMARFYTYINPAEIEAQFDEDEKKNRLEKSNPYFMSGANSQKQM
Protocol: In order to examine the recognition property of VK-PRX and its component, VK-α-CD, both obtained in Example 4, to PEPT 1, the inihibitory effect to the uptake of [^3H] Gly-Sar by using HeLa cells stably expressing hPEPT 1 (HeLa-hPEPT 1) was examined. HeLa-hPEPT 1 cells or HeLa-pcDNA (Mock) cells prepared by the method described previously (Int. J. Cancer. 88, 274-80, 2000) were placed in a multidish (Nunc) at 10^6 cells/well and cultured in an incubator (Hirasawa) at 37° C. and 5% CO2 for four days. As a broth, DMEM (Dulbecco's modified Eagle's medium; Gibco Laboratories) containing 10% FCS (Gibco Laboratories), 2 mM L-glutamine, and 1 mg/ml G418 was used. After culture, the broth was aspirated and each cell was washed three times with 1 ml of Hanks' balanced salt solution (HBSS; 0.952 mM CaCl2, 5.36 mM KCl, 0.441 mM KH2PO4, 0.812 mM MgSO4, 136.7 mM NaCl, 0.385 mM Na2HPO4, 25 mM D-glucose, 10 mM MES: pH 6.0) at 37° C., then preincubated for five minutes. Subsequently, 250 μl of HBSS containing each inhibitor with the concentration shown in FIG. 4 and Table 8, and [^3H(G)] Gly-Sar (476 nM) was added and an uptake reaction was initiated at 37° C. The inhibitors, VK-PRX (No. 1˜6), were prepared such that the highest concentration of dissolved VK-PRX would be 500 μM or lower, and were filtrated through a filter, and then used for the uptake reaction. At the beginning of the reaction, the reaction solution was taken from each dish and placed into […]. Then, 4 ml of liquid scintillation cocktail (Clear-sol I, Nacalai tesque) was added to the solution, and radioactivity in the reaction solution was measured by a liquid scintillation counter (LSC-5100, Aloka Co. Ltd.). Two minutes after the beginning of the reaction, the reaction solution in each dish was removed by aspiration, and the reaction was stopped by washing the cells three times with 1 ml of ice-cooled HBSS (HEPES: pH 7.4). Subsequently, 250 μl of 5 N NaOH was added to each dish to solubilize the cells (for two hours or longer), and 250 μl of 5 N HCl was added for neutralization, then the whole amount was poured into mini vial, and 4 ml of liquid scintillation cocktail (Clear-sol I, Nacalai tesque) was added, and radioactivity taken in the cells was measured.
Further, in order to measure the amount of cellular proteins after the culture mentioned above, the cultured cells were solubilized, Bio-Rad Protein Assay reagent (Bio-Rad Co.) was added, and the absorbance at 595 nm was measured. As a standard, BSA (bovine serum albumin) was used. Based on the results, the uptake amount of [^3H] Gly-Sar into the cells [cell/medium ratio (μl/mg·protein)] was calculated according to the formula (3). The value of the control in FIG. 4 is the result of the uptake reaction conducted in the absence of the inhibitor. […] It has been shown that the uptake of [^3H]

hPEPT 1 [2] = target: T1, hPEPT 1; assay: Effect of preincubation with inhibitor on [^3H] Gly-Sar uptake by HeLa-hPEPT 1 cells; format: cell-based; conditions: FIG. 5
Protocol: Gly-Sar uptake was examined by using HeLa cells stably expressing hPEPT 1 (HeLa-hPEPT 1). In the presence or absence of each inhibitor with concentrations shown in FIG. 5, preincubation was conducted for 30 minutes (open columns), and after the reaction solution was removed, the inhibitory effect on [^3H] Gly-Sar uptake was measured in a manner similar to that of Example 5 except that the uptake reaction was conducted in HBSS containing the same concentration of the inhibitor and [^3H] Gly-Sar (476 nM) (closed columns). In the figure, “Mock” indicates the uptake by HeLa-pcDNA 3 cells. […] Gly-Sar.

PEPT 1 [3] = target: T2, PEPT 1 (Rattus norvegicus, UniProt P51574); assay: in vivo; conditions: male, Sprague-Dawley, po; for Tmax: Tmax of CDX
T2 sequence (P51574 1-710): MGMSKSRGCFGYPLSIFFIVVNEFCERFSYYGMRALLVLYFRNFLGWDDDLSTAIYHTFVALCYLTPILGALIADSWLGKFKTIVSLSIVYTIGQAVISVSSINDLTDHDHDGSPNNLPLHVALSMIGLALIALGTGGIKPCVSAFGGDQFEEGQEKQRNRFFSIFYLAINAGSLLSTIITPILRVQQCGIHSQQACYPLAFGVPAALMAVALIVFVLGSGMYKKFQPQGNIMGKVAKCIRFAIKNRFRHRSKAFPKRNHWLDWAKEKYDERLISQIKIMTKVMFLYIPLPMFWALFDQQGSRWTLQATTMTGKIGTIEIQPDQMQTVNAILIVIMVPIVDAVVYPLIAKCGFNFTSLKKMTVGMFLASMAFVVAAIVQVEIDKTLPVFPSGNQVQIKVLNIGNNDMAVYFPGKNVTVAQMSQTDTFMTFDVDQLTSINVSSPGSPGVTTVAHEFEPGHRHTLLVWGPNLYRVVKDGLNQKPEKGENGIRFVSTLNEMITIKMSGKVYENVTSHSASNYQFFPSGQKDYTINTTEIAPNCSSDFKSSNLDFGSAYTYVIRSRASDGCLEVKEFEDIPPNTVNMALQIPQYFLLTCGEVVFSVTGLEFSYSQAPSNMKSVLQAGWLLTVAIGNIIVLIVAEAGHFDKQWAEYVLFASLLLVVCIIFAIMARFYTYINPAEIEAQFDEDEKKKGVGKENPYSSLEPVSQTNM
Protocol: (§1) At the column temperature 35° C., 7% of acetonitrile (containing 0.1 M of acetic acid buffer (pH 3.0) and 0.01 M of 1-pentasulfonic acid sodium) was used as a mobile phase for separating elution at flow rate 0.9 ml/min. The detection was conducted at wavelength 240 nm, and CDX concentration in the plasma was determined.
(§2) In the formula, C, F, D, ka, ke, Vd and t represent CDX concentration in the plasma, absorptance, dosage, absorption rate constant, elimination rate constant, distribution volume, and time interval between the drug administration and blood collection, respectively.
(§3) In the formula, CL represents total clearance, Dose represents the dose of the drug, respectively.
(§4) With regard to 2.5 mg/kg CDX and 45 mg/kg CEX (▾), CEX was orally administered to the rats 30 minutes before the administration of CDX. Each pharmacokinetic parameter of the above-mentioned rats was calculated based on the change in the CDX concentration in the blood, with the formula (4), the formula (6), the formula (7), and the formula (8), and evaluated. Values shown in the figure and the table are the mean±S.E.M. of three to four independent experiments.
(§5) Then each pharmacokinetic parameter was calculated based on the change in the CDX concentration in the blood, with the formula (4), the formula (6), the formula (7), and the formula (8), and evaluated. […] Values shown in the figures are the mean±S.E.M. of two to four independent experiments, and values shown in the tables are the mean±S.E.M. of three independent experiments.
(§6) Values shown in the figure and the table are the mean±S.E.M. of two to four independent experiments.
(§7) VK-PRK was orally administered 30 minutes before CDX administration. […] Values shown in FIG. 10, FIG. 11 and Table 14 are the mean±S.E.M. of four independent experiments, and values shown in Table 13 are the mean±S.E.M. of three independent experiments.
(§8) Values shown in the figure are the mean±S.E.M. of three independent experiments, and values shown in the table are the mean±S.E.M. of four independent experiments.

[4] = CDX plasma pharmacokinetics after instant intravenous injection to rats with or without oral VK-PRX; conditions: male, Sprague-Dawley, rat
Protocol: as §1
In the formula, α, β and V1 represent gradient of distribution phase, gradient of elimination phase, and distribution volume of central compartment, respectively.
as §3

PEPT 1 [5] = target: T2, PEPT 1; conditions: in vivo, po
Protocol: as §1, §2, §3, §4, §5, §6, §7, §8

In the case of OC[C@H]1O[C@@H]2O[C@H]3[C@H](O)[C@@H](O)[C@@H](O[C@H]4[C@H](O)[C@@H](O)[C@@H](O[C@H]5[C@H](O)[C@@H](O)[C@@H](O[C@H]6[C@H](O)[C@@H](O)[C@@H](O[C@H]7[C@H](O)[C@@H](O)[C@@H](O[C@H]1[C@H](O)[C@H]2O)O[C@@H]7CO)O[C@@H]6CO)O[C@@H]5CO)O[C@@H]4CO)O[C@@H]3CO [α-CD, α-cyclodextrin], the “Inhibitory effect on [^3H] Gly-Sar uptake (in words)” value (hPEPT 1 [1]; HeLa-hPEPT 1, FIG. 4 and Table 8) is reported as “significant inhibitory effect was not observed”, the “[^3H] Gly-Sar uptake % of control” value (hPEPT 1 [1]; inhibitor 3 mM) is reported as 125.87 ± 23.34 % of control and the “Inhibitory effect on [^3H] Gly-Sar uptake (in words)” value (hPEPT 1 [2]) is reported as “no inhibitory effect”.
With Gly-Sar the “[^3H] Gly-Sar uptake % of control” value (hPEPT 1 [1]; inhibitor 10 mM) was 12.93 ± 2.45 % of control.
In the case of CC1=C(C(=O)O)N2C(=O)C(NC(=O)C(N)c3ccccc3)C2SC1 (centres unmarked) [Cephalexin, cephalexin], the “[^3H] Gly-Sar uptake % of control” value (hPEPT 1 [1]; inhibitor 10 mM) is reported as 70.12 ± 1.45 % of control.
With CC(C)[C@H](N)C(=O)N[C@@H](CCCCN)C(=O)O [Val-Lys, valyl-lysine] the “[^3H] Gly-Sar uptake % of control” value (hPEPT 1 [1]; inhibitor 3 mM) was 21.13 ± 1.80 % of control.
For NCC(=O)O [Gly], the “[^3H] Gly-Sar uptake % of control” value (hPEPT 1 [1]; inhibitor 10 mM) was 97.71 ± 7.10 % of control.
In the case of CC1=C(C(=O)O)N2C(=O)[C@@H](NC(=O)[C@H](N)c3ccc(O)cc3)[C@H]2SC1 [Cefadroxil, cefadroxil], the “[^3H] Gly-Sar uptake % of control” value (hPEPT 1 [1]; inhibitor 10 mM) is reported as 27.69 ± 1.44 % of control, the AUC(0-inf) (PEPT 1 [3]; 5 mg/kg, AUC0-∞ of CDX) is reported as 2700 ng·h/mL and the Tmax (PEPT 1 [3]; 5 mg/kg) is reported as 1.09 ± 0.08 h. The k el (PEPT 1 [3]; 5 mg/kg, ke (elimination rate constant) of CDX) was 8.61e-05 s⁻¹, the Tmax (PEPT 1 [3]; […]) was 0.95 h and the Vd [4] was 0.162 ± 0.00899 L. For the same compound, the clearance [4] was 11 ± 0.41 mL/min, the “dose dependence of AUC0−∞ and Cmax of CDX (in words)” value (PEPT 1 [5]) was “saturation phenomenon” and the “AUC0-∞ of CDX” value (PEPT 1 [5]; male, Sprague-Dawley, 5 mg/kg) was 272 ± 9.27 µg·min/mL. The “ke (elimination rate constant) of CDX” value (PEPT 1 [5]; male, Sprague-Dawley, 5 mg/kg) was 0.54 ± 0.06 h⁻¹.
